Results taken from the NIST ThermoML archive (doi:10.1021/je200811n).
Numbers after ± are expanded uncertainties.

Conditions: Hot wire method

F/C=C/C(F)(F)F [trans-1,3,3,3-tetrafluoropropene]
Conditions	thermal conductivity [W/m/K]
241.66 K, 603 kPa, Liquid	0.09528 ± 0.001
241.9 K, 10355 kPa, Liquid	0.09967 ± 0.0011
241.91 K, 15386 kPa, Liquid	0.1016 ± 0.0011
241.91 K, 20710 kPa, Liquid	0.1039 ± 0.0011
241.94 K, 5328 kPa, Liquid	0.0974 ± 0.0011
242 K, 586 kPa, Liquid	0.09528 ± 0.001
242.02 K, 10375 kPa, Liquid	0.09936 ± 0.0011
242.03 K, 15367 kPa, Liquid	0.1014 ± 0.0011
242.03 K, 20714 kPa, Liquid	0.1037 ± 0.0011
242.06 K, 5339 kPa, Liquid	0.097 ± 0.0011
242.11 K, 624 kPa, Liquid	0.09501 ± 0.001
242.35 K, 15378 kPa, Liquid	0.1015 ± 0.0011
242.36 K, 10375 kPa, Liquid	0.09945 ± 0.0011
242.36 K, 20709 kPa, Liquid	0.1035 ± 0.0011
242.41 K, 5308 kPa, Liquid	0.09704 ± 0.0011
242.47 K, 619 kPa, Liquid	0.095 ± 0.001
242.5 K, 10391 kPa, Liquid	0.09913 ± 0.0011
242.5 K, 15372 kPa, Liquid	0.1012 ± 0.0011
242.5 K, 20712 kPa, Liquid	0.1034 ± 0.0011
242.56 K, 5308 kPa, Liquid	0.09697 ± 0.0011
242.62 K, 642 kPa, Liquid	0.09474 ± 0.001
242.85 K, 10385 kPa, Liquid	0.09922 ± 0.0011
242.85 K, 20701 kPa, Liquid	0.1032 ± 0.0011
242.86 K, 15376 kPa, Liquid	0.1011 ± 0.0011
242.92 K, 5304 kPa, Liquid	0.09701 ± 0.0011
243 K, 622 kPa, Liquid	0.09406 ± 0.001
243.02 K, 15383 kPa, Liquid	0.1009 ± 0.0011
243.02 K, 20695 kPa, Liquid	0.1029 ± 0.0011
243.04 K, 10395 kPa, Liquid	0.09886 ± 0.0011
243.1 K, 5316 kPa, Liquid	0.09673 ± 0.0011
243.17 K, 615 kPa, Liquid	0.09437 ± 0.001
243.39 K, 20699 kPa, Liquid	0.1032 ± 0.0011
243.4 K, 15385 kPa, Liquid	0.1011 ± 0.0011
243.42 K, 10393 kPa, Liquid	0.09892 ± 0.0011
243.49 K, 5327 kPa, Liquid	0.09667 ± 0.0011
243.57 K, 643 kPa, Liquid	0.09442 ± 0.001
243.59 K, 20693 kPa, Liquid	0.1027 ± 0.0011
243.6 K, 15397 kPa, Liquid	0.1006 ± 0.0011
243.63 K, 10402 kPa, Liquid	0.09852 ± 0.0011
243.71 K, 5317 kPa, Liquid	0.09606 ± 0.001
243.79 K, 649 kPa, Liquid	0.09402 ± 0.001
251.51 K, 42 kPa, Gas	0.01026 ± 0.00036
251.52 K, 63 kPa, Gas	0.01037 ± 0.00036
251.54 K, 86 kPa, Gas	0.01039 ± 0.00036
251.74 K, 41 kPa, Gas	0.01015 ± 0.00035
251.76 K, 63 kPa, Gas	0.01019 ± 0.00035
251.77 K, 86 kPa, Gas	0.01024 ± 0.00036
251.78 K, 87 kPa, Gas	0.01029 ± 0.00036
251.97 K, 87 kPa, Gas	0.01006 ± 0.00035
252 K, 41 kPa, Gas	0.01005 ± 0.00035
252 K, 62 kPa, Gas	0.01009 ± 0.00035
252 K, 88 kPa, Gas	0.01003 ± 0.00035
252.01 K, 86 kPa, Gas	0.01018 ± 0.00035
252.02 K, 63 kPa, Gas	0.01 ± 0.00035
252.03 K, 87 kPa, Gas	0.01018 ± 0.00035
252.31 K, 87 kPa, Gas	0.01004 ± 0.00035
252.33 K, 88 kPa, Gas	0.01011 ± 0.00035
252.36 K, 63 kPa, Gas	0.01014 ± 0.00035
252.65 K, 86 kPa, Gas	0.01016 ± 0.00035
252.67 K, 87 kPa, Gas	0.01008 ± 0.00035
252.73 K, 63 kPa, Gas	0.01019 ± 0.00035
253.03 K, 86 kPa, Gas	0.01015 ± 0.00035
253.07 K, 87 kPa, Gas	0.01011 ± 0.00035
253.13 K, 63 kPa, Gas	0.01017 ± 0.00035
253.46 K, 86 kPa, Gas	0.01017 ± 0.00035
253.48 K, 87 kPa, Gas	0.01016 ± 0.00035
253.56 K, 62 kPa, Gas	0.01022 ± 0.00036
261.25 K, 97 kPa, Gas	0.0104 ± 0.0004
261.43 K, 21238 kPa, Liquid	0.09804 ± 0.0011
261.44 K, 15456 kPa, Liquid	0.09523 ± 0.001
261.45 K, 97 kPa, Gas	0.01036 ± 0.00036
261.47 K, 10413 kPa, Liquid	0.09305 ± 0.001
261.48 K, 489 kPa, Liquid	0.08806 ± 0.00097
261.5 K, 80 kPa, Gas	0.01109 ± 0.00038
261.5 K, 5306 kPa, Liquid	0.09055 ± 0.00099
261.51 K, 21243 kPa, Liquid	0.09768 ± 0.0011
261.52 K, 15449 kPa, Liquid	0.09503 ± 0.001
261.55 K, 97 kPa, Gas	0.01112 ± 0.00038
261.55 K, 10410 kPa, Liquid	0.09274 ± 0.001
261.56 K, 107 kPa, Gas	0.0112 ± 0.0004
261.56 K, 489 kPa, Liquid	0.0878 ± 0.00096
261.57 K, 122 kPa, Gas	0.01124 ± 0.00039
261.58 K, 5302 kPa, Liquid	0.09026 ± 0.00099
261.64 K, 98 kPa, Gas	0.01034 ± 0.00036
261.73 K, 80 kPa, Gas	0.01096 ± 0.00038
261.77 K, 97 kPa, Gas	0.01098 ± 0.00038
261.78 K, 105 kPa, Gas	0.01104 ± 0.00038
261.79 K, 120 kPa, Gas	0.01105 ± 0.00038
261.83 K, 21233 kPa, Liquid	0.09783 ± 0.0011
261.85 K, 15453 kPa, Liquid	0.09507 ± 0.001
261.86 K, 98 kPa, Gas	0.01037 ± 0.00036
261.88 K, 10404 kPa, Liquid	0.09272 ± 0.001
261.91 K, 489 kPa, Liquid	0.08776 ± 0.00096
261.93 K, 5298 kPa, Liquid	0.09023 ± 0.00099
261.93 K, 21227 kPa, Liquid	0.09748 ± 0.0011
261.96 K, 80 kPa, Gas	0.01086 ± 0.00038
261.96 K, 128 kPa, Gas	0.01078 ± 0.00037
261.96 K, 15453 kPa, Liquid	0.09468 ± 0.001
261.97 K, 82 kPa, Gas	0.01083 ± 0.00037
261.97 K, 112 kPa, Gas	0.01074 ± 0.00037
261.98 K, 99 kPa, Gas	0.01077 ± 0.00037
262 K, 98 kPa, Gas	0.01084 ± 0.00037
262 K, 10412 kPa, Liquid	0.0925 ± 0.001
262.01 K, 97 kPa, Gas	0.0109 ± 0.0004
262.02 K, 103 kPa, Gas	0.01092 ± 0.00038
262.03 K, 118 kPa, Gas	0.01094 ± 0.00038
262.03 K, 488 kPa, Liquid	0.08756 ± 0.00096
262.04 K, 5301 kPa, Liquid	0.08998 ± 0.00098
262.09 K, 98 kPa, Gas	0.01037 ± 0.00036
262.29 K, 109 kPa, Gas	0.01076 ± 0.00037
262.29 K, 21229 kPa, Liquid	0.09748 ± 0.0011
262.3 K, 81 kPa, Gas	0.01082 ± 0.00037
262.3 K, 98 kPa, Gas	0.01082 ± 0.00037

Liquid
Conditions	thermal conductivity [W/m/K]
243.15 K	0.09448 ± 0.00058
253.15 K	0.09063 ± 0.00056
